The supplement of paper PMC6045584
± gives the standard deviation of the averaged measurements.

Columns and labels:
[1] = compound: CCCS(=O)(=O)Nc1ccc(F)c(C(=O)c2c[nH]c3ncc(Cl)cc23)c1F [PLX-4720]; assay: surviving fraction relative to DMSO-only wells; higher = less growth inhibition; settings: exposure time: 5 days
Outline: (§1)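 Tumour cell lines were grown to log phase and seeded at 250–500 cells per well in 384-well plates. They were exposed continuously to inhibitors at 0.5, 1, 5, 10, 50, 100, 500 and 1000 nM for five days, beginning 24 hours after seeding. Surviving fraction is CellTiter-Glo luminescence normalised to the median of DMSO-only wells.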

[2] = compound: O=C(O)CC[C@H]1CC[C@@](c2cc(F)ccc2F)(S(=O)(=O)c2ccc(Cl)cc2)CC1 [MK0752]; assay: as above; settings: exposure time: 5 days
Outline: as §1

Row | Test System | surviving fraction ([1]; 0.5 nM) | surviving fraction ([1]; 1 nM) | surviving fraction ([1]; 5 nM) | surviving fraction ([1]; 10 nM) | surviving fraction ([1]; 50 nM) | surviving fraction ([1]; 100 nM) | surviving fraction ([1]; 500 nM) | surviving fraction ([1]; 1000 nM) | surviving fraction ([2]; 0.5 nM) | surviving fraction ([2]; 1 nM) | surviving fraction ([2]; 5 nM) | surviving fraction ([2]; 10 nM) | surviving fraction ([2]; 50 nM) | surviving fraction ([2]; 100 nM) | surviving fraction ([2]; 500 nM) | surviving fraction ([2]; 1000 nM)
1 | SCC47 HEADNECK | 0.871 ± 0.025 | 0.853 ± 0.017 | 0.953 ± 0.041 | 0.884 ± 0.016 | 0.981 ± 0.03 | 1.09 ± 0.03 | 0.999 ± 0.14 | 1.01 ± 0.051 | 1.13 ± 0.12 | 1.17 ± 0.034 | 1.2 ± 0.089 | 1.14 ± 0.029 | 1.14 ± 0.064 | 1.18 ± 0.038 | 1.03 ± 0.067 | 1.06 ± 0.058
2 | SUM159 BREAST | 1.04 ± 0.28 | 1.08 ± 0.28 | 1.04 ± 0.21 | 1.08 ± 0.23 | 1.08 ± 0.25 | 1.1 ± 0.26 | 1.1 ± 0.24 | 1.11 ± 0.21 | 1.16 ± 0.12 | 1.15 ± 0.098 | 1.13 ± 0.075 | 1.13 ± 0.085 | 1.06 ± 0.044 | 1.11 ± 0.022 | 1.13 ± 0.057 | 1.11 ± 0.035
3 | SUM44 BREAST | 0.9 ± 0.025 | 0.868 ± 0.058 | 0.932 ± 0.011 | 0.969 ± 0.022 | 1.07 ± 0.072 | 1.02 ± 0.052 | 0.946 ± 0.045 | 0.92 ± 0.03 | 0.998 ± 0.06 | 0.992 ± 0.035 | 0.983 ± 0.033 | 1.015 ± 0.0072 | 1.04 ± 0.051 | 1.09 ± 0.025 | 1.02 ± 0.031 | 1.05 ± 0.03
4 | MDAMB134 BREAST | 0.624 ± 0.088 | 0.701 ± 0.076 | 0.715 ± 0.014 | 0.78 ± 0.25 | 0.754 ± 0.09 | 0.9355 ± 0.0021 | 0.726 ± 0.076 | 0.76 ± 0.054 | 1.08 ± 0.067 | 1.14 ± 0.093 | 0.96 ± 0.16 | 1.16 ± 0.079 | 0.922 ± 0.035 | 1.09 ± 0.14 | 1 ± 0.063 | 0.934 ± 0.014
5 | MDAMB231 BREAST | 0.936 ± 0.018 | 0.964 ± 0.017 | 0.969 ± 0.024 | 0.9755 ± 0.0065 | 1.01 ± 0.031 | 1.03 ± 0.012 | 1.01 ± 0.011 | 1.03 ± 0.038 | 0.984 ± 0.033 | 0.993 ± 0.015 | 1.02 ± 0.019 | 1.01 ± 0.02 | 1.01 ± 0.013 | 1.01 ± 0.018 | 0.9137 ± 0.0079 | 0.877 ± 0.01
6 | CME SYNOVIAL | 0.101 ± 0.0087 | 0.904 ± 0.082 | 0.732 ± 0.072 | 0.945 ± 0.23 | 0.217 ± 0.021 | 1.24 ± 0.14 | 1.02 ± 0.14 | 1.12 ± 0.044 | 1.27 ± 0.23 | 1.31 ± 0.15 | 1.29 ± 0.09 | 1.39 ± 0.029 | 1.46 ± 0.22 | 1.47 ± 0.2 | 1.24 ± 0.11 | 1.34 ± 0.14
7 | HCC1954 BREAST | 0.487 ± 0.0099 | 0.487 ± 0.028 | 0.455 ± 0.038 | 0.452 ± 0.053 | 0.55 ± 0.029 | 0.476 ± 0.027 | 0.466 ± 0.072 | 0.403 ± 0.0074 | 0.922 ± 0.069 | 0.747 ± 0.054 | 1.18 ± 0.13 | 1.15 ± 0.15 | 1 ± 0.05 | 0.904 ± 0.02 | 0.741 ± 0.05 | 0.808 ± 0.073
8 | SG32 HEADNECK | 0.341 ± 0.11 | 0.617 ± 0.029 | 0.494 ± 0.06 | 0.742 ± 0.094 | 0.366 ± 0.042 | 0.804 ± 0.079 | 0.623 ± 0.16 | 0.821 ± 0.035 | 1.11 ± 0.091 | 1.2 ± 0.039 | 1.26 ± 0.085 | 1.23 ± 0.11 | 1.21 ± 0.23 | 1.18 ± 0.039 | 0.972 ± 0.14 | 1.05 ± 0.086
9 | HCC70 BREAST | 1.02 ± 0.06 | 0.984 ± 0.14 | 1.04 ± 0.034 | 1.02 ± 0.034 | 1.03 ± 0.068 | 1.03 ± 0.091 | 1.03 ± 0.12 | 0.963 ± 0.082 | 1.1 ± 0.079 | 1.07 ± 0.05 | 1.132 ± 0.01 | 1.08 ± 0.029 | 1.11 ± 0.073 | 1.08 ± 0.13 | 1.03 ± 0.055 | 0.924 ± 0.074
10 | MHM BONE | 0.9713 ± 0.0025 | 0.96 ± 0.016 | 1 ± 0.023 | 1.02 ± 0.021 | 0.97 ± 0.022 | 1.01 ± 0.031 | 0.949 ± 0.0092 | 1.01 ± 0.038 | 1 ± 0.032 | 1.04 ± 0.029 | 1.06 ± 0.029 | 1.06 ± 0.043 | 1.08 ± 0.029 | 1.08 ± 0.013 | 0.975 ± 0.025 | 0.989 ± 0.026
11 | NY BONE | 0.905 ± 0.038 | 0.909 ± 0.026 | 0.933 ± 0.016 | 0.959 ± 0.02 | 0.949 ± 0.014 | 0.9663 ± 0.004 | 0.932 ± 0.0095 | 0.9273 ± 0.0065 | 1.04 ± 0.025 | 1.07 ± 0.03 | 1.11 ± 0.017 | 1.11 ± 0.052 | 1.07 ± 0.036 | 1.1 ± 0.02 | 1.02 ± 0.042 | 1.06 ± 0.034
12 | JIMT1 BREAST | 0.857 ± 0.025 | 0.862 ± 0.042 | 0.894 ± 0.05 | 0.887 ± 0.046 | 0.966 ± 0.067 | 1.01 ± 0.06 | 0.947 ± 0.066 | 0.976 ± 0.037 | 0.966 ± 0.0054 | 0.988 ± 0.018 | 0.997 ± 0.042 | 0.97 ± 0.042 | 0.984 ± 0.021 | 1.04 ± 0.036 | 0.939 ± 0.021 | 0.997 ± 0.018
13 | KPD BONE | 0.917 ± 0.082 | 0.916 ± 0.017 | 0.973 ± 0.024 | 0.982 ± 0.011 | 1.01 ± 0.075 | 0.988 ± 0.075 | 0.932 ± 0.085 | 0.9813 ± 0.0098 | 0.998 ± 0.054 | 0.986 ± 0.046 | 1.12 ± 0.042 | 1.05 ± 0.035 | 1.053 ± 0.0087 | 1.1 ± 0.073 | 0.951 ± 0.067 | 0.915 ± 0.06
14 | HMLE3 BREAST | 0.225 ± 0.027 | 0.8523 ± 0.007 | 0.721 ± 0.039 | 0.851 ± 0.049 | 0.556 ± 0.041 | 1.03 ± 0.031 | 1.14 ± 0.036 | 1.15 ± 0.085 | 0.958 ± 0.049 | 1.06 ± 0.039 | 1.08 ± 0.024 | 1.06 ± 0.062 | 0.999 ± 0.086 | 1.02 ± 0.066 | 0.979 ± 0.1 | 0.978 ± 0.069
15 | RDES SOFT TISSUE | 0.795 ± 0.13 | 0.683 ± 0.12 | 0.7 ± 0.079 | 0.747 ± 0.058 | 1.04 ± 0.11 | 0.989 ± 0.25 | 0.994 ± 0.054 | 0.793 ± 0.13 | 1.27 ± 0.1 | 1.241 ± 0.0096 | 1.17 ± 0.1 | 1.21 ± 0.18 | 1.03 ± 0.15 | 1.18 ± 0.29 | 0.97 ± 0.097 | 0.998 ± 0.12
16 | T47D BREAST | 0.81 ± 0.036 | 0.921 ± 0.0064 | 0.919 ± 0.043 | 0.953 ± 0.025 | 0.914 ± 0.015 | 1.04 ± 0.06 | 0.994 ± 0.021 | 1.01 ± 0.043 | 1.07 ± 0.025 | 1.07 ± 0.011 | 1.04 ± 0.022 | 1.1 ± 0.015 | 1.11 ± 0.071 | 1.14 ± 0.018 | 1.09 ± 0.044 | 1.11 ± 0.02
17 | HU09 BONE | 0.863 ± 0.032 | 0.959 ± 0.13 | 0.873 ± 0.013 | 0.941 ± 0.071 | 1.01 ± 0.07 | 0.946 ± 0.14 | 0.898 ± 0.11 | 1 ± 0.11 | 0.995 ± 0.11 | 1.06 ± 0.052 | 1.11 ± 0.052 | 1.181 ± 0.0032 | 1.12 ± 0.069 | 1.06 ± 0.088 | 0.984 ± 0.14 | 1.03 ± 0.063
18 | NCIH441 LUNG | 0.899 ± 0.056 | 0.906 ± 0.072 | 0.919 ± 0.1 | 0.965 ± 0.016 | 0.933 ± 0.045 | 0.968 ± 0.025 | 0.961 ± 0.044 | 0.898 ± 0.085 | 0.971 ± 0.21 | 1 ± 0.17 | 1.11 ± 0.057 | 1.08 ± 0.099 | 1.02 ± 0.03 | 1.05 ± 0.061 | 1.07 ± 0.11 | 0.974 ± 0.065
19 | ZR751 BREAST | 0.774 ± 0.021 | 0.834 ± 0.051 | 0.768 ± 0.062 | 0.811 ± 0.078 | 0.783 ± 0.08 | 0.826 ± 0.099 | 0.949 ± 0.086 | 0.947 ± 0.061 | 1.21 ± 0.034 | 1.15 ± 0.031 | 1.13 ± 0.13 | 1.06 ± 0.089 | 1.09 ± 0.041 | 1.17 ± 0.083 | 1.14 ± 0.15 | 1.25 ± 0.24
20 | S68 BREAST | 0.773 ± 0.17 | 0.685 ± 0.22 | 0.775 ± 0.18 | 0.778 ± 0.19 | 1 ± 0.31 | 1.06 ± 0.12 | 1.09 ± 0.16 | 0.962 ± 0.15 | 0.684 ± 0.15 | 0.975 ± 0.11 | 0.912 ± 0.11 | 0.96 ± 0.28 | 0.94 ± 0.094 | 0.989 ± 0.058 | 0.919 ± 0.19 | 1.04 ± 0.27
21 | CAL51 BREAST | 0.926 ± 0.04 | 0.897 ± 0.026 | 0.985 ± 0.045 | 0.939 ± 0.038 | 0.992 ± 0.027 | 1.02 ± 0.029 | 1.04 ± 0.052 | 1.05 ± 0.04 | 1.02 ± 0.015 | 0.995 ± 0.035 | 0.972 ± 0.027 | 0.967 ± 0.064 | 1.05 ± 0.013 | 0.992 ± 0.038 | 1.02 ± 0.036 | 1.02 ± 0.041
